The structures appear in SMILES notation.

The record followed here is patent US20260265238A1, “COMPOUNDS AND PHARMACEUTICAL COMPOSITIONS THAT DEGRADE SWI/SNF-RELATED MATRIX-ASSOCIATED ACTIN-DEPENDENT REGULATOR OF CHROMATIN SUBFAMILY A” (Plexium, Inc., priority 2023, published 2026).

The target of assay [1] is T1, SMARCA2-HiBiT HeLa cells (protein which is expressed from the SMARCA2 gene) (Homo sapiens, UniProt P51531).
T1 construct: protein which is expressed from the SMARCA2 and SMARCA4 genes; host or cells: HeLa (SMARCA2-HiBiT engineered line)
Briefly: SMARCA2 degradation assay (HiBiT-fusion HeLa cell line, 24 h, luminescence). The format is cell-based. Put shortly: (§1)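 HiBiT-fusion HeLa lines, 8,000 cells/well, overnight attachment; cpd 10-pt series (typically 10 μM–300 pM), 24 h, 37° C. Lysis with LgBiT + HiBiT substrate, 10 min shaking at RT, luminescence read. DC50 from dose-response fit; % degradation also scored at 1 μM.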

In assay [2] the target is T2, SMARCA4-HiBiT HeLa cells (protein which is expressed from the SMARCA4 gene) (Homo sapiens, UniProt P51532).
T2 construct: protein which is expressed from the SMARCA2 and SMARCA4 genes; host or cells: HeLa (SMARCA4-HiBiT engineered line)
Briefly: SMARCA4 degradation assay (HiBiT-fusion HeLa cell line, 24 h, luminescence). The format is cell-based. Put shortly:
as §1

T1 sequence (P51531 whole entry): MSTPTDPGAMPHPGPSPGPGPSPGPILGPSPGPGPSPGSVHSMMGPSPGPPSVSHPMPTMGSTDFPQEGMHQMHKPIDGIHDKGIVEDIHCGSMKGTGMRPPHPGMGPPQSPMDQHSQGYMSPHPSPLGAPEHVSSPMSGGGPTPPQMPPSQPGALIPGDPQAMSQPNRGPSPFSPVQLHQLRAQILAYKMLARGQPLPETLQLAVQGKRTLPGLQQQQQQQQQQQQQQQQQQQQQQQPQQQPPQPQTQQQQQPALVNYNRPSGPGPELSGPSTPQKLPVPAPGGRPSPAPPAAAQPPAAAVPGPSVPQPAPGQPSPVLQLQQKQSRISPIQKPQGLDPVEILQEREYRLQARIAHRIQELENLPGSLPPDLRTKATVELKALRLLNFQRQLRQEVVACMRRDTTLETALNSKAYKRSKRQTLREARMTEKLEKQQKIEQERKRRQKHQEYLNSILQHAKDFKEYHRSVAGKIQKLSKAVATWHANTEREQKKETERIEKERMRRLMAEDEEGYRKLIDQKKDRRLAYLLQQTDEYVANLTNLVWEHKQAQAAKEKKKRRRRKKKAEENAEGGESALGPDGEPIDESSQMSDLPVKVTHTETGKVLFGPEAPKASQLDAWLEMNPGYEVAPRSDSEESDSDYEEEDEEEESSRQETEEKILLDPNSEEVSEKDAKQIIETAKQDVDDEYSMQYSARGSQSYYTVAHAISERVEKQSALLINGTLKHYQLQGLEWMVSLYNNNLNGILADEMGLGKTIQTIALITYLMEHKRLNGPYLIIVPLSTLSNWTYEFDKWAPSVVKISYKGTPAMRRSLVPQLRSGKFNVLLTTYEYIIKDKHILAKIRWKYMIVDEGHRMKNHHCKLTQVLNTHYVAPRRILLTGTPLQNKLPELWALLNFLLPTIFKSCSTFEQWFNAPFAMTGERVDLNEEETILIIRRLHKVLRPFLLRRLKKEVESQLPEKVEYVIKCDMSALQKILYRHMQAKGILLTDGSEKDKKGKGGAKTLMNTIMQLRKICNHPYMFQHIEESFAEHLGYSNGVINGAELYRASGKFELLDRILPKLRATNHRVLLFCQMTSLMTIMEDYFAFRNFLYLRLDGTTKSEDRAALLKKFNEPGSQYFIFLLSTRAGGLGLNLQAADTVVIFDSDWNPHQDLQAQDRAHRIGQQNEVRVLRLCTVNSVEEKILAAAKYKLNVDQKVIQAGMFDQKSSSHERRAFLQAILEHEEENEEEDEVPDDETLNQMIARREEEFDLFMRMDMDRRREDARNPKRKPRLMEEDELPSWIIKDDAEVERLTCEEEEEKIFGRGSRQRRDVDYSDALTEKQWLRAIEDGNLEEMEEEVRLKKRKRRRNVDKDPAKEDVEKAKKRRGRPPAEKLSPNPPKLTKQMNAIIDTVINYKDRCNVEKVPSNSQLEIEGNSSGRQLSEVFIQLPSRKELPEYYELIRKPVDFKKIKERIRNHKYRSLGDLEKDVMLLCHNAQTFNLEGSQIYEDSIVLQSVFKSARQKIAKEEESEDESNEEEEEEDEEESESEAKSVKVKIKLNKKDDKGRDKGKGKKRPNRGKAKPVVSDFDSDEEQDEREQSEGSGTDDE
T2 sequence (P51532 whole entry): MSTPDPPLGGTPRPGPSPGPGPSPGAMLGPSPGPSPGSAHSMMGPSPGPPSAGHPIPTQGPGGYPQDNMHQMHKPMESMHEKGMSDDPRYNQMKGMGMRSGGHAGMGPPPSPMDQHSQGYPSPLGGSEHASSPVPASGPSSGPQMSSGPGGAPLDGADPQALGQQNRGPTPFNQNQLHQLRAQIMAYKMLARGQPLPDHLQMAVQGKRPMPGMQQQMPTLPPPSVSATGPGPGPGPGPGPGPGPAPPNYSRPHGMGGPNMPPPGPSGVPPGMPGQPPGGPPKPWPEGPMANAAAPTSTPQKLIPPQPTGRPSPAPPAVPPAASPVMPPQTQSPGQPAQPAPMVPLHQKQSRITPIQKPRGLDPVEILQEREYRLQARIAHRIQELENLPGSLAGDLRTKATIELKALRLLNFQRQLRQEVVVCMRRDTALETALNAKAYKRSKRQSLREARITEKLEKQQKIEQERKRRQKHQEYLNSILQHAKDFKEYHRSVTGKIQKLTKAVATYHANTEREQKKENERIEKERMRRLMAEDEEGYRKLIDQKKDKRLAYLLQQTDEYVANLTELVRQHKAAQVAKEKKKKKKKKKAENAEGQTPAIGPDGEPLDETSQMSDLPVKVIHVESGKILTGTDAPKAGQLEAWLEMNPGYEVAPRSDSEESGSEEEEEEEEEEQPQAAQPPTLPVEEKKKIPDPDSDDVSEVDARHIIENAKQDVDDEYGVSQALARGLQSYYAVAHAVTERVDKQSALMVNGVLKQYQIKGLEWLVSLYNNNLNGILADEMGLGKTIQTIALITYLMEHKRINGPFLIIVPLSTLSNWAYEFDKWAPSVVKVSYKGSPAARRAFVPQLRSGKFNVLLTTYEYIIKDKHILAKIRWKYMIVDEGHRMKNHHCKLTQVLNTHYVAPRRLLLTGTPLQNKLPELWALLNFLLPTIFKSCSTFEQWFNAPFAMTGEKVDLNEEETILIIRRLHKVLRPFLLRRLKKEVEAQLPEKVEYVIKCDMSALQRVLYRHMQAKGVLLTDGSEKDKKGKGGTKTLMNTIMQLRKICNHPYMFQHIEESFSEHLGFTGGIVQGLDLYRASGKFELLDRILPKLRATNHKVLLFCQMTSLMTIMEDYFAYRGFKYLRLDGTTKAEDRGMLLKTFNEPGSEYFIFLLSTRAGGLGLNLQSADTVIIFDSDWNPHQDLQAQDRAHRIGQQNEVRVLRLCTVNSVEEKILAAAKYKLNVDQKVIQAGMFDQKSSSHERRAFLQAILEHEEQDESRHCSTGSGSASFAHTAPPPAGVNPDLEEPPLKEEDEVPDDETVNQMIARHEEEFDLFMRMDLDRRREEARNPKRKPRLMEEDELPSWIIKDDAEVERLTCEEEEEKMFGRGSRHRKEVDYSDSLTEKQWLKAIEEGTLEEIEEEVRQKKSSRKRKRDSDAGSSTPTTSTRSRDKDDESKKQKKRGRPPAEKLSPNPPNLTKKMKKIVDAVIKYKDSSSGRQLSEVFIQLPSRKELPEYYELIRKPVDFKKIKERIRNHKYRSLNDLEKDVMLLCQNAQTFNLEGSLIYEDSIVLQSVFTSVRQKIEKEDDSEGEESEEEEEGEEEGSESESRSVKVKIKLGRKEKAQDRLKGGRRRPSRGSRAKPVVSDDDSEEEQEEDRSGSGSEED

For the compound `Nc1nnc(-c2ccccc2O)cc1OC1CC2CN(c3ccnc(C#CCN4CCC4)n3)CC2C1` (stereo not shown) [Compound P-197, o-[6-amino-5-(3-(2-[3-(1-azetidinyl)-1-propynyl]-4-pyrimidinyl}-3-azabicyclo[3.3.0]oct-7-yloxy)-3-pyridazinyl]phenol], in assay [1], the DC50 lay within 50 to 500 nM and the “SMARCA2 % Degradation @ 1 μM” value was “++ (++=30-70%)”. Moreover, in assay [2], the 50% degradation concentration (DC50) lay in the range of 500 to 5000 nM and the inhibition at 1 µM is 30 to 70%.

Consider `C[C@@H]1CCN(c2cc(-c3ccccc3O)nnc2N)CCN1c1ccnc(C#C[C@@H](C)O)n1` [Compound P-198, o-{5-[(R)-4-{2-[(R)-3-hydroxy-1-butynyl]-4-pyrimidinyl}-5-methyl-1,4-diazepan-1-yl]-6-amino-3-pyridazinyl}phenol], for which, in assay [1], the DC50 lay within 50 to 500 nM and the “SMARCA2 % Degradation @ 1 μM” value is reported as “+++ (+++=>70%)”. Further, in assay [2], the DC50 was 500 to 5000 nM and the inhibition at 1 µM lay in the range of 30 to 70%.

`C[C@@H]1CCN(c2cc(-c3ccccc3O)nnc2N)CCN1c1ccnc(C#CCN2CCC3(CC2)COC3)n1` [Compound P-199, o-{5-[(R)-5-methyl-4-(2-{3-(2-oxa-7-aza-7-spiro[3.5]nonyl)-1-propynyl}-4-pyrimidinyl)-1,4-diazepan-1-y1]-6-amino-3-pyridazinyl}phenol]: in assay [1], the DC50 was 50 to 500 nM and the “SMARCA2 % Degradation @ 1 μM” value is on record as “+++ (+++=>70%)”. For the same compound, in assay [2], the DC50 was 50 to 500 nM and the inhibition at 1 µM lay in the range of 30 to 70%.

Consider `C[C@@H]1CCN(c2cc(-c3ccccc3O)nnc2N)CCN1c1ccnc(C#CCN2C[C@@H]3C[C@H]2CO3)n1` [Compound P-200], for which, in assay [1], the DC50 fell in the range of 50 to 500 nM and the “SMARCA2 % Degradation @ 1 μM” value is on record as “+++ (+++=>70%)”. In assay [2], the DC50 is 50 to 500 nM and the inhibition at 1 µM was 30 to 70%.

Consider `C[C@@H]1CCN(c2cc(-c3ccccc3O)nnc2N)CCN1c1ccnc(C#CCN2CC3(CCC3(F)F)C2)n1` [Compound P-201, o-{5-[(R)-4-(2-{3-(5,5-difluoro-2-aza-2-spiro[3.3]hcptyl)-1-propynyl}-4-pyrimidinyl)-5-methyl-1,4-diazepan-1-yl]-6-amino-3-pyridazinyl}phenol], for which, in assay [1], the DC50 fell in the range of 50 to 500 nM and the “SMARCA2 % Degradation @ 1 μM” value is on record as “+++ (+++=>70%)”. In assay [2], this compound gave a DC50 of 50 to 500 nM and an inhibition at 1 µM of 30 to 70%.

Consider `CCN(CC)CC#Cc1nccc(N2CCN(c3cc(-c4ccccc4O)nnc3N)CC[C@H]2C)n1` [Compound P-202], for which, in assay [1], the DC50 was < 50 nM and the “SMARCA2 % Degradation @ 1 μM” value is “+++ (+++=>70%)”. In assay [2], the DC50 is < 50 nM and the inhibition at 1 µM lay within 30 to 70%.

Turning to `C[C@@H]1CCN(c2cc(-c3ccccc3O)nnc2N)CCN1c1nc(C#CCN2CCCC2=O)ncc1F` [Compound P-203, 1-[3-(4-{(R)-4-[3-amino-6-(o-hydroxyphenyl)-4-pyridazinyl]-7-methyl-1,4-diazepan-1-y1}-5-fluoro-2-pyrimidinyl)-2-propynyl]-2-pyrrolidinone], in assay [1], the DC50 lay within 50 to 500 nM and the “SMARCA2 % Degradation @ 1 μM” value is reported as “++ (++=30-70%)”. In assay [2], this compound gave a DC50 of 50 to 500 nM and an inhibition at 1 µM of 30 to 70%.

Regarding `Nc1nnc(-c2ccccc2O)cc1N1CC2CC(C1)N2c1ccnc(C#CCN2CC(F)(F)C2)n1` [Compound P-204, o-[6-amino-5-(6-{2-[3-(3,3-difluoro-1-azetidinyl)-1-propynyl]-4-pyrimidinyl}-3,6-diazabicyclo[3.1.1]hept-3-yl)-3-pyridazinyl]phenol], in assay [1], the DC50 was 50 to 500 nM and the “SMARCA2 % Degradation @ 1 μM” value was “++ (++=30-70%)”. Also, in assay [2], the DC50 was in the range of 500 to 5000 nM and the inhibition at 1 µM lay within 30 to 70%.

Regarding `Nc1nnc(-c2ccccc2O)cc1N1CC2CC(C1)N2c1ccnc(C#CCn2cncn2)n1` [Compound P-205, o-[6-amino-5-(6-{2-[3-(1H-1,2,4-triazol-1-yl)-1-propynyl]-4-pyrimidinyl}-3,6-diazabicyclo[3.1.1]hept-3-yl)-3-pyridazinyl]phenol], the DC50 in assay [1] is > 5000 nM. Besides, in assay [2], the DC50 was 500 to 5000 nM and the inhibition at 1 µM was in the range of 30 to 70%.

As to `CN(C)CC#Cc1nccc(N2C3CC2CN(c2cc(-c4ccccc4O)nnc2N)C3)n1` [Compound P-206, o-[6-amino-5-(6-{2-[3-(dimethylamino)-1-propynyl]-4-pyrimidinyl}-3,6-diazabicyclo[3.1.1]hcpt-3-yl)-3-pyridazinyl]phenol], in assay [1], the DC50 was < 50 nM and the “SMARCA2 % Degradation @ 1 μM” value is on record as “+++ (+++=>70%)”. In assay [2], the DC50 was 50 to 500 nM and the inhibition at 1 µM was > 70%.

In the case of `C[C@@H]1CCN(c2cc(-c3ccccc3O)nnc2N)CCN1c1nc(C#CCO)ncc1F` [Compound P-207, o-(5-{(R)-4-[5-fluoro-2-(3-hydroxy-1-propynyl)-4-pyrimidinyl]-5-methyl-1,4-diazepan-1-yl}-6-amino-3-pyridazinyl)phenol], in assay [1], the DC50 is 500 to 5000 nM and the “SMARCA2 % Degradation @ 1 μM” value is listed as “++ (++=30-70%)”. In addition, in assay [2], the half-maximal degradation concentration (DC50) lay within 500 to 5000 nM and the inhibition at 1 µM is < 30%.

Consider `CC(C#Cc1ncc(F)c(N2CCN(c3cc(-c4ccccc4O)nnc3N)CC[C@H]2C)n1)N(C)C` (stereo partly shown) [Compound P-208], for which, in assay [1], the DC50 was 50 to 500 nM and the “SMARCA2 % Degradation @ 1 μM” value is given as “++ (++=30-70%)”. Moreover, in assay [2], the DC50 lay in the range of 50 to 500 nM and the inhibition at 1 µM was < 30%.

`C[C@@H]1CCN(c2cc(-c3ccccc3O)nnc2N)CCN1c1ccnc(C#CCN2CC(F)(F)C3(CCC3)C2)n1` [Compound P-209, o-{5-[(R)-4-(2-{3-(8,8-difluoro-6-aza-6-spiro[3.4]octyl)-1-propyny1}-4-pyrimidinyl)-5-methyl-1,4-diazepan-1-yl]-6-amino-3-pyridaziny1} phenol]: in assay [1], the DC50 was in the range of 50 to 500 nM and the “SMARCA2 % Degradation @ 1 μM” value is listed as “++ (++=30-70%)”. In assay [2], this compound registered a DC50 of 50 to 500 nM and an inhibition at 1 µM of 30 to 70%.

For the compound `C[C@@H]1CCN(c2cc(-c3ccccc3O)nnc2N)CCN1c1ccnc(C#CCN2CCC(C)(F)C2)n1` (stereo partly drawn) [Compound P-210, o-{5-[(R)-4-{2-[3-(3-fluoro-3-methyl-1-pyrrolidinyl)-1-propynyl]-4-pyrimidinyl}-5-methyl-1,4-diazepan-1-yl]-6-amino-3-pyridaziny1} phenol], in assay [1], the DC50 was < 50 nM and the “SMARCA2 % Degradation @ 1 μM” value was “++ (++=30-70%)”. In assay [2], the half-maximal degradation concentration (DC50) was < 50 nM and the inhibition at 1 µM lay within 30 to 70%.

In the case of `C[C@@H]1CCN(c2cc(-c3ccccc3O)nnc2N)CCN1c1ccnc(C#CC2CCCO2)n1` (stereo partly drawn) [Compound P-211, o-{5-[(R)-5-methyl-4-{2-[2-(tetrahydro-2-furyl)ethynyl]-4-pyrimidinyl}-1,4-diazepan-1-yl]-6-amino-3-pyridaziny1} phenol], in assay [1], the 50% degradation concentration (DC50) lay within 50 to 500 nM and the “SMARCA2 % Degradation @ 1 μM” value was “++ (++=30-70%)”. In assay [2], the DC50 is 500 to 5000 nM and the inhibition at 1 µM was < 30%.

For `Nc1nnc(-c2ccccc2O)cc1-c1cnn(C2CN(c3ccnc(C#CCn4ccnc4)n3)C2)c1` [Compound P-212, o-{6-amino-5-[1-(1-{2-[3-(1-imidazolyl)-1-propynyl]-4-pyrimidinyl}-3-azetidinyl)-4-pyrazolyl]-3-pyridazinyl} phenol], in assay [1], the DC50 was in the range of 50 to 500 nM and the “SMARCA2 % Degradation @ 1 μM” value is given as “++ (++=30-70%)”. In assay [2], this compound came in with a 50% degradation concentration (DC50) of 50 to 500 nM and an inhibition at 1 µM of 30 to 70%.

Regarding `C[C@@H]1CCN(c2cc(-c3ccccc3O)nnc2N)CCN1c1ccnc(C#CCN2CC3(COC3)C2)n1` [Compound P-213, o-{5-[(R)-5-methyl-4-(2-{3-(2-oxa-6-aza-6-spiro[3.3]heptyl)-1-propynyl}-4-pyrimidinyl)-1,4-diazepan-1-yl]-6-amino-3-pyridazinyl}phenol], in assay [1], the DC50 is 50 to 500 nM and the “SMARCA2 % Degradation @ 1 μM” value was “++ (++=30-70%)”. Besides, in assay [2], the DC50 was > 5000 nM and the inhibition at 1 µM was < 30%.

For `C[C@@H]1CCN(c2cc(-c3ccccc3O)nnc2N)CCN1c1nc(C#CCn2cncn2)ncc1F` [Compound P-214, o-{5-[(R)-4-{5-fluoro-2-[3-(1H-1,2,4-triazol-1-yl)-1-propynyl]-4-pyrimidinyl}-5-methyl-1,4-diazepan-1-yl]-6-amino-3-pyridazinyl}phenol], in assay [1], the 50% degradation concentration (DC50) was 50 to 500 nM and the “SMARCA2 % Degradation @ 1 μM” value was “++ (++=30-70%)”. Moreover, in assay [2], the DC50 lay in the range of 50 to 500 nM and the inhibition at 1 µM was 30 to 70%.

As for `C[C@@H]1CCN(c2cc(-c3ccccc3O)nnc2N)CCN1c1ccnc(C#CCN2CC(C#N)C2)n1` [Compound P-215, 1-[3-(4-{ (R)-4-[3-amino-6-(o-hydroxyphenyl)-4-pyridazinyl]-7-methyl-1,4-diazepan-1-yl}-2-pyrimidinyl)-2-propynyl]-3-azetidinecarbonitrile], in assay [1], the DC50 is 50 to 500 nM and the “SMARCA2 % Degradation @ 1 μM” value was “+++ (+++=>70%)”. Further, in assay [2], the DC50 lay within 50 to 500 nM and the inhibition at 1 µM lay in the range of 30 to 70%.

With `CN(C)CC#Cc1nccc(N2CC(n3cc(-c4cc(-c5ccccc5O)nnc4N)cn3)C2)n1` [Compound P-216, o-{6-amino-5-[1-(1-{2-[3-(dimethylamino)-1-propynyl]-4-pyrimidinyl}-3-azetidinyl)-4-pyrazolyl]-3-pyridazinyl} phenol], in assay [1], the DC50 is < 50 nM and the “SMARCA2 % Degradation @ 1 μM” value was “++ (++=30-70%)”. Besides, in assay [2], the DC50 is < 50 nM and the inhibition at 1 µM was in the range of 30 to 70%.
